Experimental data taken from US5708008A, “5-Substituted-3-(1,2,3,6-tetrahydropyridin-4-yl)-and 3-(piperidin-4-yl)-1H-indoles: new 5-HT1F agonists” (Eli Lilly and Company, priority 1996, dated 1998).
Like-named read-outs stand apart in the source and are kept apart here.

Tests used:
[1] = test system: protein extravasation induced by stimulation of the trigeminal ganglion; experiment: Inhibition of neuronal protein extravasation in dura after electrical stimulation of trigeminal ganglion; assay type: in vivo, rat or guinea pig
migraine = conditions: literature; cited from earlier work
[2] = cited from earlier work
[3] = test system: cephalic vascular smooth muscle; conditions: literature; cited from earlier work
[4] = literature; cited from earlier work
[5] = Rattus norvegicus, iv, read-out: Inhibition of Protein Extravasation, i.v. ID50

With `Oc1ccc2[nH]cc(C3CCNCC3)c2c1` [Compound III] the ED50 [1, 5] was 8.9e-06 µmol/kg.

For `Cn1cc(CCN2CCC(c3c[nH]c4ccc(F)cc34)CC2)cn1` [Compound II], the ED50 ([1]; Rattus norvegicus, iv; read-out: Inhibition of Protein Extravasation, i.v. ID50) was 8.6e-07 µmol/kg.

`CCN(CC)C1CCc2cccc(Cl)c2C1` (centres unmarked) [Compound IV] gave an ED50 [1, 5] of 0.00012 µmol/kg.

In the case of `CNS(=O)(=O)Cc1ccc2[nH]cc(CCN(C)C)c2c1` [Compound I], the “efficacy in treatment of migraine” value (migraine) is listed as “effective in the treatment of migraine”, the side effects ([2]; due to affinity for a number of serotonin receptor subtypes) is listed as “undesirable side effects, particularly vasoconstriction” and the bioavailability ([2]; in vivo) is listed as “low bioavailability”. The duration of action ([2]; in vivo) was “relatively short duration of action”, the ED50 [1, 5] was 2.6e-05 µmol/kg and the “contraction of cephalic vascular smooth muscle” value [3] was “contract cephalic vascular smooth muscle”. The “crossing of the blood-brain barrier” value [4] was “does not cross the blood-brain barrier”.

For `CN(C)C1CCc2[nH]c3ccc(O)cc3c2C1` (centres unmarked) [Compound V], the ED50 [1, 5] was 8.7e-06 µmol/kg.
